Columns and labels:
[1] = DRUGMATRIX: Calcium Channel Type L, Benzothiazepine radioligand binding (ligand: [3H] Diltiazem); assay type: cell membranes, Rattus norvegicus, Wistar, Brain, Membrane; details: Not Active = under 50% inhibition at 10 µM
[2] = target: Substance-P receptor (Homo sapiens, UniProt P25103); assay type: cell membranes, CHO, Membrane; details: cho; note: in other assays of this panel Not Active means under 50% inhibition at 10 µM
[3] = target: D(3) dopamine receptor (Homo sapiens, UniProt P35462); experiment: DRUGMATRIX: Dopamine D3 radioligand binding (ligand: [3H] Spiperone); assay type: cell membranes, CHO, Membrane; details: cho
D(3) dopamine receptor, sequence (P35462 whole entry): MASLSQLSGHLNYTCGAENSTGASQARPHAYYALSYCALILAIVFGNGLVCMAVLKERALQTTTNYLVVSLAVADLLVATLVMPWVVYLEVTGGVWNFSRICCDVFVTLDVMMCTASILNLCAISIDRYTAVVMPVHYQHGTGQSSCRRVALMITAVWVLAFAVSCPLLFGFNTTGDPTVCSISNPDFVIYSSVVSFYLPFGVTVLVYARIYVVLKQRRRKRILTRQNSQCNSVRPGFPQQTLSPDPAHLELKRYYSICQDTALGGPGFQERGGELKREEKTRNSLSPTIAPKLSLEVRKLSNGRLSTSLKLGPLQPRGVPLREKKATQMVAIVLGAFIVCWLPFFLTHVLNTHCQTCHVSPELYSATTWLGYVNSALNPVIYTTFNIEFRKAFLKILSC

[4] = DRUGMATRIX: Imidazoline I2, Central radioligand binding (ligand: [3H] Idazoxan); assay type: cell membranes, Rattus norvegicus, Wistar, Cerebral cortex, Membrane; details: Not Active = under 50% inhibition at 10 µM
[5] = target: Melanocortin receptor 5 (Homo sapiens, UniProt P33032); assay type: cell membranes, HEK293, Membrane; details: hek293; note: in other assays of this panel Not Active means under 50% inhibition at 10 µM
Melanocortin receptor 5, sequence (P33032 whole entry): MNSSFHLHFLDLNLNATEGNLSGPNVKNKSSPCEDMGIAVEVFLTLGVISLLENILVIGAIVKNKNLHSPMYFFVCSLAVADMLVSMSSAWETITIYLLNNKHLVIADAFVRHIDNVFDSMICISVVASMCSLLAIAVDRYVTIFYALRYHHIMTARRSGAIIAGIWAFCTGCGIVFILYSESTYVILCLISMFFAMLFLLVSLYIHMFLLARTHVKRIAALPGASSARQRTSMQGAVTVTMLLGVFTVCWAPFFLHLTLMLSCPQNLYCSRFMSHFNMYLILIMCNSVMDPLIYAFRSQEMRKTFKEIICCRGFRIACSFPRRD

[6] = target: Nitric oxide synthase 1 (Rattus norvegicus, UniProt P29476); assay type: tissue-based, Cerebellum; note: in other assays of this panel Not Active means under 50% inhibition at 10 µM
Nitric oxide synthase 1, sequence (P29476 whole entry): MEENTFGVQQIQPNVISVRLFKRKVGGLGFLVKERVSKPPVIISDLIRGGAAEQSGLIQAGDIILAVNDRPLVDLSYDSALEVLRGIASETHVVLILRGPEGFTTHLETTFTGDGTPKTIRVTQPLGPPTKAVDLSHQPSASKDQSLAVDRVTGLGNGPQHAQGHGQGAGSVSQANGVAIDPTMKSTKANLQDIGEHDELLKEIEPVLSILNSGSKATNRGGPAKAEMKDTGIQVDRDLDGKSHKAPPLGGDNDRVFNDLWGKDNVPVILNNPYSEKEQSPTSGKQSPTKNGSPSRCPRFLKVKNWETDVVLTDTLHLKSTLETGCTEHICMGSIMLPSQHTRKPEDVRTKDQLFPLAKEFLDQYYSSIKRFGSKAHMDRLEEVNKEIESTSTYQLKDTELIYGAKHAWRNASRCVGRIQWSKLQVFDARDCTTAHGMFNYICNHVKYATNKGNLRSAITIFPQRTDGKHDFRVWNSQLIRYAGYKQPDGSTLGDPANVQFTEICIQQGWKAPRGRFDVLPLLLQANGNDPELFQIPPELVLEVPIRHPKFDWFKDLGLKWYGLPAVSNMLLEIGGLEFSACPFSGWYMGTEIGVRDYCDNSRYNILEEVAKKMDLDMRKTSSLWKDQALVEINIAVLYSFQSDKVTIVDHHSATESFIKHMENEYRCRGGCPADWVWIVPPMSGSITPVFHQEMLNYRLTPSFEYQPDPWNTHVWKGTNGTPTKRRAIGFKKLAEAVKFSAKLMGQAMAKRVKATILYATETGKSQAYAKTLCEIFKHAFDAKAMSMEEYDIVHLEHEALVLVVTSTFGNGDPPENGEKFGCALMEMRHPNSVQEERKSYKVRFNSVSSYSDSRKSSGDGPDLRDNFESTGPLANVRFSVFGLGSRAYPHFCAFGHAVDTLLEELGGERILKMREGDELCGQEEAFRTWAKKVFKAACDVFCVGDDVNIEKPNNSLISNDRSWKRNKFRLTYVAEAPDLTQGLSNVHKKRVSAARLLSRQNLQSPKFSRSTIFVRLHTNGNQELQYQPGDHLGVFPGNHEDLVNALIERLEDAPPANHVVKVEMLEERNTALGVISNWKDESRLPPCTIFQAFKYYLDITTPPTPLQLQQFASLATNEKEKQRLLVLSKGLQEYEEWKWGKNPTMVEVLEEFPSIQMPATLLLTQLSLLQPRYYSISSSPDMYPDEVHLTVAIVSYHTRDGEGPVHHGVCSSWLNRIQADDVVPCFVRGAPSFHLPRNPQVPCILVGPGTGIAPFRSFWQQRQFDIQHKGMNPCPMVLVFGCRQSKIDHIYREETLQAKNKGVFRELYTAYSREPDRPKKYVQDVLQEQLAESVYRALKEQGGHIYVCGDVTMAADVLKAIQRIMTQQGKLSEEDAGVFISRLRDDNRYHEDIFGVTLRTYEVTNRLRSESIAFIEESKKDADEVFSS

[7] = target: T1, Nitric oxide synthase, inducible (Mus musculus, UniProt P29477); parameters: species or system Escherichia coli;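 note: inhibition of iNOS enzyme activity measured with L-arginine as substrate; in other assays of this panel Not Active means under 50% inhibition at 10 µM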
T1 sequence (P29477 whole entry): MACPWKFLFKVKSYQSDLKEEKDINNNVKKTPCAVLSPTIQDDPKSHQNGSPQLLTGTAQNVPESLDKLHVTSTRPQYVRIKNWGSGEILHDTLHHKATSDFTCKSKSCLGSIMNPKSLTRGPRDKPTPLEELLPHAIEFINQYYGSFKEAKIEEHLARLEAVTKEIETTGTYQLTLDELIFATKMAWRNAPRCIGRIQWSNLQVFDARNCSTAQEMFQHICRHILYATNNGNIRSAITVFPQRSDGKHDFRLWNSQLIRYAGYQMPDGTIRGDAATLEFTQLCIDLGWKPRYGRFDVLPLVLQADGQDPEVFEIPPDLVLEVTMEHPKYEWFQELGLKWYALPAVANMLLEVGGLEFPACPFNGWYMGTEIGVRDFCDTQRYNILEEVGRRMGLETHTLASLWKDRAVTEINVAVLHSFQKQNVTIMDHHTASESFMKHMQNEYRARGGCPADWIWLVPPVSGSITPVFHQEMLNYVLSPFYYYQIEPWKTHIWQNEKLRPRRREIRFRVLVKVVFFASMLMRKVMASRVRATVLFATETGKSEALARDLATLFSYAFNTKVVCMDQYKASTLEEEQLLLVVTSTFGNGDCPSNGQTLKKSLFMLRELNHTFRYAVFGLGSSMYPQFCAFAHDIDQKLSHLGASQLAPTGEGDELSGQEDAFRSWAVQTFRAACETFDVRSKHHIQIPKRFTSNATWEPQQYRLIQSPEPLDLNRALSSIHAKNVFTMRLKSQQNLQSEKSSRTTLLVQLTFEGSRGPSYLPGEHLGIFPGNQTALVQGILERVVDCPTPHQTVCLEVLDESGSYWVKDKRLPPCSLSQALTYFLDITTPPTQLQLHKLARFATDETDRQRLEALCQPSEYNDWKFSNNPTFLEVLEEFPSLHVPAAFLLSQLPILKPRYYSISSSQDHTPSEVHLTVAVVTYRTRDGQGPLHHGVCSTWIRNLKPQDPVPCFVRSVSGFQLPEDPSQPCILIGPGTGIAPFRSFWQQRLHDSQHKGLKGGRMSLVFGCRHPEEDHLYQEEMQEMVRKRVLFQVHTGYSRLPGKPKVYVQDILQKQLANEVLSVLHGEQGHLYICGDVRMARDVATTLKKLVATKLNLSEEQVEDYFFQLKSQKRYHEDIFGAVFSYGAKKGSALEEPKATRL

[8] = target: T2, Neutrophil elastase (Homo sapiens, UniProt P08246); assay type: tissue-based
T2 sequence (P08246 whole entry): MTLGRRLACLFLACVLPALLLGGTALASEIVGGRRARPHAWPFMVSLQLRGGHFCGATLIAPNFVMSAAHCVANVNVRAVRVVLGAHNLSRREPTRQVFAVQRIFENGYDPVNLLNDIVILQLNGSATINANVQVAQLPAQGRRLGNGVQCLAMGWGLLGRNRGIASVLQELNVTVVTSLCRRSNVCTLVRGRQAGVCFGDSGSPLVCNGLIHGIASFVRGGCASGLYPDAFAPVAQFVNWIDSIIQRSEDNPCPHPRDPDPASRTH

Substance-P receptor, sequence (P25103 whole entry): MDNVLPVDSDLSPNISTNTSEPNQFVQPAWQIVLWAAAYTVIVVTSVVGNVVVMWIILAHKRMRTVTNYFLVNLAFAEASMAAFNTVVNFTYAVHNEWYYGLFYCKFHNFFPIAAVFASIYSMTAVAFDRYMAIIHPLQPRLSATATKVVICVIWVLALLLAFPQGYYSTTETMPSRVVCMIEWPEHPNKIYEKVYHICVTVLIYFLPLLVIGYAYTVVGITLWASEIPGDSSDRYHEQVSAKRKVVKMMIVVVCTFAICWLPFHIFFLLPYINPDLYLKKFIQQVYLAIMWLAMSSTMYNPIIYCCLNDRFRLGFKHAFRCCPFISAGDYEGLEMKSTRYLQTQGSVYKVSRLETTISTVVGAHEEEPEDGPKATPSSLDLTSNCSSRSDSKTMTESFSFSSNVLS

C[C@]12Cc3c[nH]nc3C[C@@H]1CC[C@@H]1[C@@H]2CC[C@@]2(C)[C@H]1CC[C@]2(C)O [STANOZOLOL]
Not Active: IC50 [1] | Ki [1] | IC50 [2] | IC50 [3] | IC50 [4] | Ki [4] | IC50 [5] | IC50 [6] | IC50 [7] | IC50 [8]

CN(N=O)C(=O)N[C@@H](C=O)[C@@H](O)[C@H](O)[C@H](O)CO [STREPTOZOCIN]
Not Active: IC50 [1] | Ki [1] | IC50 [2] | IC50 [3] | IC50 [4] | Ki [4] | IC50 [5] | IC50 [6] | IC50 [7] | IC50 [8]

Cc1cc(NS(=O)(=O)c2ccc(N)cc2)no1 [SULFAMETHOXAZOLE]
Not Active: IC50 [1] | Ki [1] | IC50 [2] | IC50 [3] | IC50 [4] | Ki [4] | IC50 [5] | IC50 [6] | IC50 [7] | IC50 [8]

Nc1ccc(S(N)(=O)=O)cc1 [SULFANILAMIDE]
Not Active: IC50 [1] | Ki [1] | IC50 [2] | IC50 [3] | IC50 [4] | Ki [4] | IC50 [5] | IC50 [6] | IC50 [7] | IC50 [8]

Nc1ccc(S(=O)(=O)Nc2ccnn2-c2ccccc2)cc1 [SULFAPHENAZOLE]
Not Active: IC50 [1] | Ki [1] | IC50 [2] | IC50 [3] | IC50 [4] | Ki [4] | IC50 [5] | IC50 [6] | IC50 [7] | IC50 [8]

C=CC[C@@H]1/C=C(\C)C[C@H](C)C[C@H](OC)[C@H]2O[C@@](O)(C(=O)C(=O)N3CCCC[C@H]3C(=O)O[C@H](/C(C)=C/[C@@H]3CC[C@@H](O)[C@H](OC)C3)[C@H](C)[C@@H](O)CC1=O)[C@H](C)C[C@@H]2OC [TACROLIMUS ANHYDROUS]
Not Active: IC50 [1] | Ki [1] | IC50 [2] | IC50 [3] | IC50 [4] | Ki [4] | IC50 [5] | IC50 [6] | IC50 [7] | IC50 [8]

CC1CN(c2cc3c(cc2F)c(=O)c(C(=O)O)cn3-c2ccc(F)cc2F)CCN1 (stereo not given) [TEMAFLOXACIN]
Not Active: IC50 [1] | Ki [1] | IC50 [2] | IC50 [3] | IC50 [4] | Ki [4] | IC50 [5] | IC50 [6] | IC50 [7] | IC50 [8]

CC(C)(C)NCC(O)c1cc(O)cc(O)c1 (stereo not given) [TERBUTALINE]
Not Active: IC50 [1] | Ki [1] | IC50 [2] | IC50 [3] | IC50 [4] | Ki [4] | IC50 [5] | IC50 [6] | IC50 [7] | IC50 [8]

CN(C)[C@@H]1C(O)=C(C(N)=O)C(=O)[C@@]2(O)C(O)=C3C(=O)c4c(O)cccc4[C@@](C)(O)[C@H]3C[C@@H]12 [TETRACYCLINE]
Not Active: IC50 [1] | Ki [1] | IC50 [2] | IC50 [3] | IC50 [4] | Ki [4] | IC50 [5] | IC50 [6] | IC50 [7] | IC50 [8]

c1ccc2[nH]c(-c3cscn3)nc2c1 [THIABENDAZOLE]
Not Active: IC50 [1] | Ki [1] | IC50 [2] | IC50 [3] | IC50 [4] | Ki [4] | IC50 [5] | IC50 [6] | IC50 [7] | IC50 [8]

Cc1ccc(C(=O)C(C)CN2CCCCC2)cc1 (stereo not given) [TOLPERISONE]
Not Active: IC50 [1] | Ki [1] | IC50 [2] | IC50 [3] | IC50 [4] | Ki [4] | IC50 [5] | IC50 [6] | IC50 [7] | IC50 [8]

NC(CO)(CO)CO [TROMETHAMINE]
Not Active: IC50 [1] | Ki [1] | IC50 [2] | IC50 [3] | IC50 [4] | Ki [4] | IC50 [5] | IC50 [6] | IC50 [7] | IC50 [8]

CN1[C@@H]2CC[C@H]1C[C@@H](OC(=O)c1c[nH]c3ccccc13)C2 [TROPISETRON]
Not Active: IC50 [1] | Ki [1] | IC50 [2] | IC50 [3] | IC50 [4] | Ki [4] | IC50 [5] | IC50 [6] | IC50 [7] | IC50 [8]

COc1cc(C(=O)NC2CCCNC2)cc(OC)c1OC (stereo not given) [TROXIPIDE]
Not Active: IC50 [1] | Ki [1] | IC50 [2] | IC50 [3] | IC50 [4] | Ki [4] | IC50 [5] | IC50 [6] | IC50 [7] | IC50 [8]

CC(C)[C@H](N)C(=O)OCCOCn1cnc2c(=O)nc(N)[nH]c21 [VALACYCLOVIR]
Not Active: IC50 [1] | Ki [1] | IC50 [2] | IC50 [3] | IC50 [4] | Ki [4] | IC50 [5] | IC50 [6] | IC50 [7] | IC50 [8]

CN[C@H](CC(C)C)C(=O)N[C@H]1C(=O)N[C@@H](CC(N)=O)C(=O)N[C@H]2C(=O)N[C@H]3C(=O)N[C@H](C(=O)N[C@H](C(=O)O)c4cc(O)cc(O)c4-c4cc3ccc4O)[C@H](O)c3ccc(c(Cl)c3)Oc3cc2cc(c3O[C@@H]2O[C@H](CO)[C@@H](O)[C@H](O)[C@H]2O[C@H]2C[C@](C)(N)[C@H](O)[C@H](C)O2)Oc2ccc(cc2Cl)[C@H]1O [VANCOMYCIN]
Not Active: IC50 [1] | Ki [1] | IC50 [2] | IC50 [3] | IC50 [4] | Ki [4] | IC50 [5] | IC50 [6] | IC50 [7] | IC50 [8]

From ChEMBL document CHEMBL1909046, “DrugMatrix in vitro pharmacology data”
